Assay [1] deals with MU RECEPTOR
Put plainly: Agonist or antagonist activity by either the adenylyl cyclase assay or the GPI assay (not stated which).

Assay [2] has as its target T1, δ receptors (Rattus norvegicus, UniProt P33533).
T1 construct: performed using rat brain homogenates as above; tissue Harlan Bioproducts for Science; host or cells: rat brain crude membrane homogenate
As to the kind of experiment: Radioreceptor assay selective for δ receptors ([3H]-naltrindole, rat brain homogenates). The class given is binding. The conditions noted are these: ratio of δ IC50 to µ IC50. As to the method:
Radioreceptor assays selective for δ receptors were performed using rat brain homogenates as above and [^3H]-naltrindole (0.5 nM, specific activity 34.7 Ci/mmol) as radioligand in Tris buffer containing 100 µM phenylmethylsulfonyl fluoride (PMSF), 5 mM MgCl2 and 1 mg/ml bovine serum albumin (BSA), pH 7.4. Samples were incubated for 2.5 hr. Standard curves were prepared using 0.10-3200 nM [^3H]-D-Pen2, Pen5]-enkephalin ([^3H]-DPDPE).

Assay [3] concerns the target T2, κ receptors (Cavia porcellus, UniProt P41144).
T2 construct: tissue homogenates prepared from guinea pig brains (cortex and cerebellum); tissue Harlan Bioproducts for Science; host or cells: guinea pig brain (cortex and cerebellum) homogenate
As to the kind of experiment: Radioreceptor assay selective for κ receptors ([3H]-U69,593, guinea pig brain homogenates). It counts as binding. The conditions noted are these: ratio of κ IC50 to µ IC50. As to the method: Assays selective for κ receptors were carried out using [^3H]-U69,593 (3 nM, specific activity 62 Ci/mmol) as the radioligand and tissue homogenates prepared from guinea pig brains (cortex and cerebellum) using Tris buffer containing 100 µM PMSF, 5 mM MgCl2 and 1 mg/ml BSA, pH 7.4. Sample tubes were incubated for 2.5 hr.

Non-standard residues stand in square brackets, D forms with d. No end group written: not given here.

T2 sequence (P41144 whole entry): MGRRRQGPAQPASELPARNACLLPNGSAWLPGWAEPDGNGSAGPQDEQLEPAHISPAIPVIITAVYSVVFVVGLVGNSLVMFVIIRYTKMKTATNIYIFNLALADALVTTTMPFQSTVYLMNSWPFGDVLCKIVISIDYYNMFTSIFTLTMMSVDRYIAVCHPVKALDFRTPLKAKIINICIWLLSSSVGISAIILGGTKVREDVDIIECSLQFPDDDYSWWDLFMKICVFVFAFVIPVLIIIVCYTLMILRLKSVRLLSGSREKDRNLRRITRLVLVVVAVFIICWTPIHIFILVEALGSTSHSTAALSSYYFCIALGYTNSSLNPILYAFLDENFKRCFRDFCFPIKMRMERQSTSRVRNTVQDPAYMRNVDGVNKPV
T1 sequence (P33533 whole entry): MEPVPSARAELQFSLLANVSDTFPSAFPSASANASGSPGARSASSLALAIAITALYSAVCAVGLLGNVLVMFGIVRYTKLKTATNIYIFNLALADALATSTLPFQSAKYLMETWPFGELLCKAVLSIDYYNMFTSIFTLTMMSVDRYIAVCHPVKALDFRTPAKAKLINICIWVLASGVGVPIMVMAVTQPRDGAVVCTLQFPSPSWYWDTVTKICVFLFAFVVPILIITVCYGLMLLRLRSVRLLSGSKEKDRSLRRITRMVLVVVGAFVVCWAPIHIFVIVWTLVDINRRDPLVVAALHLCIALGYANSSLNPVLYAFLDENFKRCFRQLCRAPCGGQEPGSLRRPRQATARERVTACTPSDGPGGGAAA

Consider “[dI][dM][dT][dW]G[dP]-NH2 [SEQ ID NO. 130]”, for which, in assay [1], the “AGONIST OR ANTAGONIST” value is “Agonist”.

“[D-Ala^2,MePhe^4,Gly-ol^5]enkephalin [DAMGO]”: the δ/µ in assay [2] is 253. The κ/µ in assay [3] is listed as 844.

(Values after patent publication EP0853484B1, “NOVEL MU OPIOID RECEPTOR LIGANDS: AGONISTS AND ANTAGONISTS” (priority 1995, dated 1996).)
